Non-standard residues stand in square brackets, D forms with d. pGlu = O=C1CC[C@@H](C(=O)O)N1
Legend:
[1] = system: GnRH-induced PARP cleavage (caspase 3 activation) in HEK293/rGnRHR cells; test: Inhibition of GnRH-induced PARP cleavage by chemical inhibitors; settings: for remaining GnRH I-induced PARP cleavage, mean±S.E.M.: 100 nM GnRH I plus inhibitor; for remaining GnRH I-induced PARP cleavage, mean±S.E.M. / remaining GnRH II-induced PARP cleavage, mean±S.E.M. / effect on GnRH-induced apoptosis / caspase 3 activation (in words): 48 h, complete medium; for remaining GnRH II-induced PARP cleavage, mean±S.E.M.: 100 nM GnRH II plus inhibitor
Method: Cells were maintained in Dulbecco's modified Eagles medium (DMEM) (Sigma) supplemented with 10% fetal bovine serum, 2% glutamine and 1% penicillin (10,000 units/ml)/streptomycin (10,000 μg/ml) at 37° C. in a humidified 5% CO2 atmosphere. Cell treatments were performed at 37° C. in serum-containing medium with varying molecule concentrations and time periods, as indicated in the figure legends.
After stimulation of cells growing on 6-well plates, cell monolayers were placed on ice, washed twice in ice-cod Dulbecco's phosphate buffered saline (DPBS), and lysed in a NP-40-based solubilisation buffer (5 mM HEPES, 0.25 M NaCl, 0.5% NP-40, 10% glycerol, 2 mM EDTA pH8.0, 1 mM PMSF, 0.01 mg/ml leupeptin, 1 mM Na2VO4). Solubilised lysates were clarified by centrifugation at 15,000 rpm for 15 min. A 50 μl-aliquot of clarified whole-cell lysate was mixed with an equal volume of 2× Laemmli sample buffer, resolved by SDS-polyacrylamide gel electrophoresis (SDS-PAGE) and transferred to a PVDF membrane (NEN Life Sciences/PerkinElmer Life and Analytical Sciences; Beaconsfield, Bucks, UK). These membranes were blocked in a 4% bovine serum albumin, 50 mM Tris-HCl, pH 7.0, 0.05% Tween-20 and 0.05% NP-40 blocking solution. […] Apoptosis was assessed by incubating the PVDF membranes with a 1:1,000 dilution of anticleaved PARP rabbit polyclonal antibody at 4° C. with gentle shaking overnight. […] An alkaline phosphatase conjugated IgG (Sigma) was employed as a secondary antibody in all cases. Visualization of proteins was performed using enzyme-linked chemifluoresence (Amersham Biosciences Ltd.; St. Giles, Bucks, UK) and quantified using a Typhoon 9400 Phosphorimager.
Then, cells were lysed and a western blot with specific anti-cleaved PARP antibody was carried out as explained before.

HEK293/rGnRHR cells = test: Cell growth inhibition (viable cell number after 5 days of continuous treatment) in HEK293/rGnRHR cells; format: cell-based, rat; settings: for antiproliferative/apoptotic potency compared with GnRH I (in words) / fold more potent than GnRH I to induce cell death / inhibit cell growth: rat receptor; for antiproliferative/apoptotic potency compared with GnRH I (in words): 5 days
Method: (§1) For the first method, HEK293 cells expressing various GnRH receptor constructs were seeded into 12-well PLL-coated plates at 50,000 cells (in 1 ml)/well and cultured with continuous GnRH exposure for five days, adding fresh peptide every day. Trypan Blue-excluding cells were then counted with a haemocytometer. For the second method, cells were seeded into 96-well plates at 5,000 cells (in 100 μl)/well and treated exactly as described before. 10 μl WST-1 reagent (Roche Diagnostics Ltd.; Lewes, East Sussex, UK) was added directly to each well and, after 3 h at 37° C., absorbance was read at 450 nm (with a reference at 690 nm) against a background control as blank using a microplate ELISA reader.
(§2) Bar graphs and curves were obtained using Prism 3.0 (GraphPad Software, Inc.: San Diego, Calif., USA). IC50 and EC50 values were determined by non-linear regression analysis. Curves were best-fitted to a one-site model. […] Values were normalised as specified in the figure legends.
(§3) Antiproliferation/apoptosis was estimated by determining cell number after five days of continuous exposure to the peptides. In parallel, this response was compared to the classical Gq coupled-PLCβ activation induced by GnRH peptides, as measured by the very well characterized inositol phosphates accumulation protocol. Both outputs were determined in two HEK293 cell lines; one expressing the rat receptor and the other expressing the human receptor. The human cell line was included in the study because this species may be clinically more relevant and the very low receptor expression may better reflect the in vivo tumoural state. In fact, due to poor binding, the precise affinity of the analogues on this cell line could not be determined.

HEK293/hGnRHR cells = test: Cell growth inhibition (viable cell number after 5 days of continuous treatment) in HEK293/hGnRHR cells; format: cell-based, human; settings: for antiproliferative/apoptotic potency compared with GnRH I (in words) / fold more potent than GnRH I to induce cell death / inhibit cell growth: human receptor; for antiproliferative/apoptotic potency compared with GnRH I (in words): 5 days
Method: as §1, §2, §3

rat GnRH receptor [2] = molecular target: T1, rat GnRH receptor (Rattus norvegicus, UniProt P30969); test: Competition binding assay with [125I][His5,D-Trp6]GnRH I in HEK293/rGnRHR cells
T1 construct: expressed in transfected cells
T1 sequence (P30969 1-327): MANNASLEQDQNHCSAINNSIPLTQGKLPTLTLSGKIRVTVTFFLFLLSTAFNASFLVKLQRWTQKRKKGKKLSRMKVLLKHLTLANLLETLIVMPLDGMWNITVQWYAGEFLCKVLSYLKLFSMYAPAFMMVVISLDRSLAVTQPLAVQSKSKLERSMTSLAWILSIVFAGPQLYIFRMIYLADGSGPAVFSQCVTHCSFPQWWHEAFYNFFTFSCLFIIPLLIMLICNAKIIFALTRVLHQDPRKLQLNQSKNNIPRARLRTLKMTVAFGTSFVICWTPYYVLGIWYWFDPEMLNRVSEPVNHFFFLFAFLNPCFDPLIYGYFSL
Method: Cell monolayers growing on 12-well PLL-coated plates were incubated in binding buffer (10 mM HEPES, 1% BSA in DMEM) containing […] radioligand (100,000 cpm) and 10-6-10-12 M unlabelled ligand. Equilibrium was reached after incubation for 4 h at 4° C. Cells were then lysed in 0.1 M NaOH and the radioactivity in the extract was measured in a 1261 Wallac MultiGamma counter.
as §2

rat GnRH receptor [3] = molecular target: T1, rat GnRH receptor; test: Accumulation of total inositol phosphates (PLCβ activation) in HEK293/rGnRHR cells; format: cell-based
Method: HEK293 cells stably expressing the GnRH receptor growing on 12-well PLL-coated plates were pre-labelled with 1 μCi/ml myo-[H3]inositol (Amersham) in inositol-free DMEM (Sigma) for 48 h. On the day of the experiment, cells were washed with assay buffer (140 mM NaCl, 20 mM HEPES, 8 mM glucose, 4 mM KCl, 1 mM MgCl2, 1 mM CaCl2, 1 mg/ml BSA), pre-incubated with 10 mM LiCl (in assay buffer) for 30 min, and stimulated with different concentrations of the peptides (in the same buffer) for 1 h at 37° C. Incubations were terminated by removing the culture medium and lysing the cells in ice cold 10 mM formic acid for 30 min. Inositol phosphates were extracted by chromatography with an anion exchange resin (AG® 1-X8, Bio-Rad) using 1 M ammonium formate and 0.1 M formic acid. Liquid scintillant was added to the final eluate and [3H]inositol phosphates were measured in the β-counter.
as §2

human GnRH receptor = molecular target: T2, human GnRH receptor (Homo sapiens, UniProt P30968); test: Accumulation of total inositol phosphates (PLCβ activation) in HEK293/hGnRHR cells; format: cell-based
T2 construct: expressed in transfected cells
T2 sequence (P30968 1-328): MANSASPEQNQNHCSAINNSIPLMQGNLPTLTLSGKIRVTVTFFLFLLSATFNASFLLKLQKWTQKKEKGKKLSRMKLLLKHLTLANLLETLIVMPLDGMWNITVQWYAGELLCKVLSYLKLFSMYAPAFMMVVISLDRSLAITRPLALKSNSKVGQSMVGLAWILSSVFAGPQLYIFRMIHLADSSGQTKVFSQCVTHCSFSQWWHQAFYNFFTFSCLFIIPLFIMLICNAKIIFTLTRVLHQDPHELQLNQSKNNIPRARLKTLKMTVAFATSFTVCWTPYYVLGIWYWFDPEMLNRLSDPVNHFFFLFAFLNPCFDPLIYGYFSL

[4] = HEK293/human GnRH receptor cells

## NCCOB(c1ccccc1)c1ccccc1 [2-APB, 2-aminoethyl-diphenilborinate]
[1]; inhibitor alone
  PARP cleavage caused by the inhibitor itself (cytotoxicity): significant PARP cleavage by themselves

## COc1cc2ncnc(Nc3cccc(Cl)c3)c2cc1OC [AG1478]
[1]
  remaining GnRH I-induced PARP cleavage, mean±S.E.M.: 13±10
  remaining GnRH II-induced PARP cleavage, mean±S.E.M.: 18±11

## COc1ccc2c(c1)c(C1=C(c3c[nH]c4ccccc34)C(=O)NC1=O)cn2CCCN(C)C [Gö 6983]
[1]
  remaining GnRH I-induced PARP cleavage, mean±S.E.M.: 47±22
  remaining GnRH II-induced PARP cleavage, mean±S.E.M.: 35±18
  effect on GnRH-induced apoptosis / caspase 3 activation (in words): clearly more efficient than Ro-31-8220
[1]; discussion
  extent of the effect upon GnRH-stimulated apoptosis: ~40%

## O=C1c2ccccc2-c2n[nH]c3cccc1c23 [JNKII inhibitor]
[1]
  remaining GnRH I-induced PARP cleavage, mean±S.E.M.: 84±29
  remaining GnRH II-induced PARP cleavage, mean±S.E.M.: 72±22

## COc1cccc(-c2cc(=O)c3ccccc3o2)c1N [PD98059]
[1]
  remaining GnRH I-induced PARP cleavage, mean±S.E.M.: 17±6
  remaining GnRH II-induced PARP cleavage, mean±S.E.M.: 14±13

## CC(C)(C)n1nc(-c2ccc(Cl)cc2)c2c(N)ncnc21 [PP2]
[1]
  remaining GnRH I-induced PARP cleavage, mean±S.E.M.: 20±4
  remaining GnRH II-induced PARP cleavage, mean±S.E.M.: 18±2

## Cn1cc(C2=C(c3cn(CCCSC(=N)N)c4ccccc34)C(=O)NC2=O)c2ccccc21 [Ro-31-8220]
[1]
  effect on GnRH-induced apoptosis / caspase 3 activation (in words): no effect

## CO[C@H]1[C@@H](OC)C[C@H](C)[C@@H](OC)C2=CC(=O)C=C(NC(=O)/C(C)=C/C=C\[C@H](OC)[C@@H](OC(N)=O)/C(C)=C/[C@@H]1C)C2=O [herbimycin A]
[1]
  remaining GnRH I-induced PARP cleavage, mean±S.E.M.: 9±1
  remaining GnRH II-induced PARP cleavage, mean±S.E.M.: 41±4

## PTX: Gi inhibitor from Biomol
[1]
  effect on GnRH-induced apoptosis / caspase 3 activation (in words): not having any effect

## [His5,Trp7]GnRH I: double mutant GnRH I incorporating His5 and Trp7 of GnRH II ([pGlu]HWSHGWRPG-NH2; ends and bridges not checked; UniProt P01148 24-33, looked up, variant Y5H L7W)
HEK293/rGnRHR cells
  antiproliferative/apoptotic potency compared with GnRH I (in words): improved antiproliferative/apoptotic capacity
HEK293/hGnRHR cells
  antiproliferative/apoptotic potency compared with GnRH I (in words): improved antiproliferative/apoptotic capacity

## [His5,Tyr8]GnRH I: double mutant GnRH I incorporating His5 and Tyr8 of GnRH II ([pGlu]HWSHGLYPG-NH2; ends and bridges not checked; UniProt P01148 24-33, looked up, variant Y5H R8Y)
Rat GnRH receptor [2]
  affinity compared with GnRH I (in words): features intermediate between GnRH I and [Tyr8]GnRH I
Rat GnRH receptor [3]
  potency to stimulate inositol phosphates accumulation / PLCβ activation compared with GnRH I (in words): features intermediate between GnRH I and [Tyr8]GnRH I
Human GnRH receptor
  potency to stimulate inositol phosphates accumulation / PLCβ activation compared with GnRH I (in words): features intermediate between GnRH I and [Tyr8]GnRH I
HEK293/rGnRHR cells
  antiproliferative/apoptotic potency compared with GnRH I (in words): more potent to inhibit cell growth than GnRH I
HEK293/hGnRHR cells
  antiproliferative/apoptotic potency compared with GnRH I (in words): more potent to inhibit cell growth than GnRH I

## [His5]GnRH I: GnRH I with Tyr5 substituted by His5 of GnRH II (QHWSHGLRPG; Gonadoliberin-1; UniProt P01148 24-33, looked up, variant Y5H)
Rat GnRH receptor [2]
  affinity compared with GnRH I (in words): higher affinity than GnRH I
Rat GnRH receptor [3]
  potency to stimulate inositol phosphates accumulation / PLCβ activation compared with GnRH I (in words): better potencies
Human GnRH receptor
  potency to stimulate inositol phosphates accumulation / PLCβ activation compared with GnRH I (in words): better potencies
HEK293/rGnRHR cells
  antiproliferative/apoptotic potency compared with GnRH I (in words): better potencies
HEK293/hGnRHR cells; [4]
  antiproliferative potency (in words): most potent antiproliferative/apoptotic agent ever described
HEK293/hGnRHR cells
  antiproliferative/apoptotic potency compared with GnRH I (in words): better potencies

## [Trp7,Tyr8]GnRH I: double mutant GnRH I incorporating Trp7 and Tyr8 of GnRH II ([pGlu]HWSYGWYPG-NH2; ends and bridges not checked; UniProt P01148 24-33, looked up, variant L7W R8Y)
Rat GnRH receptor [2]
  affinity compared with GnRH I (in words): almost identical to those of [Tyr8]GnRH I
Rat GnRH receptor [3]
  potency to stimulate inositol phosphates accumulation / PLCβ activation compared with GnRH I (in words): almost identical to those of [Tyr8]GnRH I
Human GnRH receptor
  potency to stimulate inositol phosphates accumulation / PLCβ activation compared with GnRH I (in words): almost identical to those of [Tyr8]GnRH I
HEK293/rGnRHR cells
  antiproliferative/apoptotic potency compared with GnRH I (in words): almost identical to those of [Tyr8]GnRH I
HEK293/hGnRHR cells
  antiproliferative/apoptotic potency compared with GnRH I (in words): almost identical to those of [Tyr8]GnRH I

## [Trp7]GnRH I: GnRH I with Leu7 replaced by Trp7 of GnRH II (QHWSYGWRPG; Gonadoliberin-1; UniProt P01148 24-33, looked up, variant L7W)
Rat GnRH receptor [2]
  affinity compared with GnRH I (in words): did not modify the affinity and PLCβ activation capacity
Rat GnRH receptor [3]
  potency to stimulate inositol phosphates accumulation / PLCβ activation compared with GnRH I (in words): did not modify the affinity and PLCβ activation capacity
Human GnRH receptor
  potency to stimulate inositol phosphates accumulation / PLCβ activation compared with GnRH I (in words): did not modify the affinity and PLCβ activation capacity
HEK293/rGnRHR cells
  fold more potent than GnRH I to induce cell death / inhibit cell growth: 9.1 fold
HEK293/hGnRHR cells
  fold more potent than GnRH I to induce cell death / inhibit cell growth: 19.3 fold

## [Tyr8]GnRH I: GnRH I with Arg8 substituted by Tyr8 of GnRH II (QHWSYGLYPG; Gonadoliberin-1; UniProt P01148 24-33, looked up, variant R8Y)
Rat GnRH receptor [2]
  affinity compared with GnRH I (in words): very low affinity
Rat GnRH receptor [3]
  fold less potent to stimulate PLCβ compared to GnRH I: 27.3 fold
Human GnRH receptor
  fold less potent to stimulate PLCβ relative to GnRH I: 23.7 fold
HEK293/rGnRHR cells; range across rat and human receptor cell lines (discussion)
  fold more potent to suppress cell growth relative to GnRH I: 4-11 fold
HEK293/rGnRHR cells
  fold more potent than GnRH I to induce cell death / inhibit cell growth: 4.2 fold
HEK293/hGnRHR cells; [4]
  antiproliferative effect compared with inositol phosphate production, selectivity (in words): most selective antiproliferative/apoptotic analogue
HEK293/hGnRHR cells
  fold more potent than GnRH I to induce cell death / inhibit cell growth: 10.7 fold

From patent publication US9388216B2, “Methods of treating reproductive cancer” (Medical Research Council, priority 2006, dated 2016)
